Results from patent US8993552B2, “Compositions and methods for treatment of leukemia” (The Regents of The University of Michigan, priority 2009, dated 2015).
Values belong to the compound of their own block, whether it stands above or below them.

Tests used:
[1] = biological target: T1, menin-MLL interaction (Homo sapiens (Human), UniProt O00255); assay: Fluorescence polarization (FP) competition assay with fluorescein-labeled MLL peptide; assay type: binding;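 also: Read-out is fluorescence anisotropy of fluorescein-labeled MLL peptide bound to menin, inhibitors displace the peptide and lower anisotropy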
T1 sequence (O00255 whole entry): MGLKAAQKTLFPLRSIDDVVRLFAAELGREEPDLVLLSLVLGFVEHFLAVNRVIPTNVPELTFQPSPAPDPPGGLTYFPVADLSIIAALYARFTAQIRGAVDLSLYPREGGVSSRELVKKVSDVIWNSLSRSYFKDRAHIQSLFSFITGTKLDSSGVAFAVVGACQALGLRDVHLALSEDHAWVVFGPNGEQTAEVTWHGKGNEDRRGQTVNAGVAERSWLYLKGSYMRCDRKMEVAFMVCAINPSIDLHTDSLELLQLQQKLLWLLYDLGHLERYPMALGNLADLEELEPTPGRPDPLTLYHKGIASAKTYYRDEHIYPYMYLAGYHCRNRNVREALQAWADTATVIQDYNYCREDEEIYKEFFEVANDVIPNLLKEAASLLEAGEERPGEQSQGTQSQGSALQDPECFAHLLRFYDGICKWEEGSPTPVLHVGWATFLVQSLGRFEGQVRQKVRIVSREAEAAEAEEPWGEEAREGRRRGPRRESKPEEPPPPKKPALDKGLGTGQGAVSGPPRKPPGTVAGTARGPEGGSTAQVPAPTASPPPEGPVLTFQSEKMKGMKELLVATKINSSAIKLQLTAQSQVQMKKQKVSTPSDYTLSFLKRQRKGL

[2] = test system: Hep-G2 (liver) cell line; assay: MTT viability assay, liver cell line
[3] = biological target: menin (Homo sapiens (Human), UniProt O00255); assay: NMR STD / competition STD binding experiments; conditions: 2.5 μM menin
Chain of menin (O00255 whole entry): as above

[4] = test system: HK-2 (kidney) cell line; assay: MTT viability assay, kidney cell line
[5] = biological target: T1, menin-MLL interaction; assay: HTRF (TR-FRET) assay, His-tagged menin and biotinylated MLL peptide; assay type: binding
[6] = Table 4, NA = no activity, NS not defined in this table, read-out: IC50 in FP assay with FLSN-MLL
[7] = Table 2, FP assay, read-out: IC50
[8] = Table 3, NA = no activity, read-out: IC50 in FP assay with FLSN-MLL
[9] = Table 1, NA = no activity, NS = no saturation on titration curve, read-out: IC50 in FP assay with FLSN-MLL
[10] = Table 1, NA = no activity, NS = no saturation on titration curve

Compound: CC(=O)N1c2ccccc2NC2=C(C(=O)CC(c3ccc(C(C)(C)C)cc3)C2)C1c1ccncc1 (stereo not shown) [Compound 33]
IC50 [1, 8]: 29 µM
toxicity in viability assay [2]: no substantial signs of toxicity
binding to menin by NMR (STD, competition STD with MLL peptide) [3]: specific binding
toxicity in viability assay [4]: no substantial signs of toxicity
IC50 ([5]; Table 3): 28 µM

Compound: NC(=O)Cc1nc(-c2ccccc2)cs1 [Compound 46]
IC50 [1, 6]: 2000 µM

Compound: CCc1cc2c(N3CCN(Cc4ccccc4)CC3)ncnc2s1 [Compound 2]
IC50 [1, 9]: 42 µM
IC50 ([5]; Table 1): 85 µM

Compound: Cc1nn(-c2ccccc2)nc1C(N)=O [Compound 44]
IC50 [1, 6]: 380 µM
binding to menin by NMR (STD, competition STD with MLL peptide) [3]: Binding to menin was confirmed

Compound: COc1ccc(-c2csc(CC(N)=O)n2)cc1 [Compound 47]
IC50 [1, 6]: 67 µM
potency relative to the original hit (6G10) ([1]; inhibition of the menin-MLL interaction): about 4 fold
IC50 ([5]; Table 4): 33 µM

Compound: Nc1cccc(-c2cccnc2)c1 [Compound 42]
IC50 ([1]; FP competition, read-out: IC50 for inhibition of the menin-MLL interaction): 50 µM
IC50 [1, 6]: 50 µM
binding to menin by NMR (STD, competition STD with MLL peptide) [3]: Binding to menin was confirmed

Compound: CCc1cc2c(N3CCN(c4ccccn4)CC3)ncnc2s1 [Compound 8]
IC50 [1, 9]: 60 µM

Compound: Cc1csc(N2CCN(c3nc(C)nc4sc5c(c34)CCCC5)CC2)n1 [Compound 15]
IC50 [1, 9]: 49 µM

Compound: c1cn(CCCNc2ncnc3sc4c(c23)CCCCC4)cn1 [Compound 3]
IC50 [1, 9]: 83 µM
IC50 ([5]; Table 1): 35 µM

Compound: Cc1cc2c(N3CCN(c4ccccc4)CC3)ncnc2s1 [Compound 29]
IC50 in FP assay with FLSN-MLL [1, 10]: NA up to 250 μM

Compound: CN1CCN(c2ncnc3oc(-c4ccccc4)c(-c4ccccc4)c23)CC1 [Compound 11]
IC50 [1, 9]: 500 µM

Compound: COc1ccc(C2CC(=O)C3=C(C2)Nc2ccccc2NC3c2cccnc2)cc1OC (stereo not shown) [Compound 37]
IC50 [1, 8]: 100 µM

Compound: Cc1ccccc1NC(=O)Cc1nc(-c2ccc(F)cc2)cs1 [Compound 50]
IC50 [1, 6]: 122 µM

Compound: c1cnc(N2CCN(c3ncnc4sccc34)CC2)nc1 [Compound 24]
IC50 in FP assay with FLSN-MLL [1, 10]: NA up to 1 mM

Compound: COC(=O)Cc1nc(C2CCCCC2)cs1 [Compound 51]
IC50 [1, 6]: 1900 µM

Compound: COc1cc(C2Nc3ccccc3NC3=C2C(=O)CC(C)(C)C3)cc(OC)c1OC (stereo not shown) [Compound 35]
IC50 [1, 8]: 35 µM

Compound: c1csc(N2CCN(c3ncnc4sccc34)CC2)n1 [Compound 31]
IC50 [1, 9]: 29.5 µM

Compound: Cc1csc(N2CCN(c3nc(CN4CCOCC4)nc4sc5c(c34)CCC(C)C5)CC2)n1 (stereo not shown) [Compound 14]
IC50 [1, 9]: 250 µM

Compound: CCOC(=O)c1sc2nc(CN3CCOCC3)nc(N3CCN(c4nccs4)CC3)c2c1C [Compound 12]
IC50 in FP assay with FLSN-MLL [1, 10]: NA up to 100 μM

Compound: NC(=O)Cc1nc(-c2ccc(Br)cc2)cs1 [Compound 49]
D in FP assay ([1]; Table 4, at 1.0 mM): 10%

Compound: CCc1cc2c(N3CCN(c4ncccn4)CC3)ncnc2s1 [Compound 10]
IC50 [1, 9]: 250 µM

Compound: Fc1ccc(-c2csc3ncnc(N4CCN(c5nccs5)CC4)c23)cc1 [Compound 20]
IC50 [1, 9]: 125 µM

Compound: CCN(CC)Cc1nc(N2CCN(c3nccs3)CC2)c2c(C)c(C)sc2n1 [Compound 17]
IC50 in FP assay with FLSN-MLL [1, 10]: NA up to 250 uM

Compound: OCc1ccc(-c2ccncc2)cc1 [Compound 45]
IC50 [1, 6]: 510 µM
binding to menin by NMR (STD, competition STD with MLL peptide) [3]: Binding to menin was confirmed

Compound: Cc1c(-c2ccccc2)sc2ncnc(N3CCN(c4nccs4)CC3)c12 [Compound 16]
IC50 [1, 9]: 71 µM

Compound: COc1ccc(C2CC(=O)C3=C(C2)Nc2ccccc2NC3c2ccccc2C)cc1OC (stereo not shown) [Compound 38]
IC50 [1, 8]: 115 µM

Compound: O=C(Cc1nc(-c2ccccc2)cs1)Nc1ccccc1 [Compound 48]
D in FP assay ([1]; Table 4, at 0.5 mM): 30%

Compound: NC(=O)Cc1nc(-c2ccc(F)cc2)cs1 [Compound 43]
IC50 [1, 6]: 230 µM
binding to menin by NMR (STD, competition STD with MLL peptide) [3]: Binding to menin was confirmed
IC50 ([5]; Table 4): 200 µM

Compound: CC1(C)CC(=O)C2=C(C1)Nc1ccccc1NC2c1ccc2c(c1)OCO2 (stereo not shown) [Compound 34]
IC50 [1, 8]: 12 µM

Compound: O=C1CC(c2ccc3c(c2)OCO3)CC2=C1C(c1cccnc1)Nc1ccccc1N2 (stereo not shown) [Compound 36]
IC50 [1, 8]: 63 µM

Compound: c1ccc(-c2cc3c(N4CCN(c5nccs5)CC4)ncnc3s2)cc1 [Compound 21]
IC50 [1, 9]: 50 µM

Compound: CN1CCCN(c2ncnc3sccc23)CC1 [Compound 27]
IC50 [1, 9]: 350 µM

Compound: CCc1cc2c(N3CCN(C)CC3)ncnc2s1 [Compound 7]
IC50 [1]: 170 µM

Continued, values first:

IC50 [1, 6]: 137 µM
Compound: NC(=O)Cc1nc(-c2cccc(Cl)c2)cs1 [Compound 54]

IC50 [1, 7]: 40 µM
Compound: CCc1cc2c(NCC3CCN(Cc4cccc(C)c4)CC3)ncnc2s1 [Compound 81]

IC50 [1, 6]: 1200 µM
Compound: Cc1cc(C)c(-c2csc(CC(N)=O)n2)cc1C [Compound 57]

IC50 [1, 7]: 4.8 µM
Compound: CC1(C)CN=C(N2CCN(c3ncnc4sc(Br)cc34)CC2)S1 [Compound 72]

IC50 [1, 7]: 4.6 µM
Compound: CC1(C)CN=C(N2CCN(c3ncnc4sc(Cc5ccccc5)cc34)CC2)S1 [Compound 71]

IC50 [1, 7]: 12 µM
Compound: c1ccc(CN2CCC(Nc3ncnc4sc5c(c34)CCC5)CC2)cc1 [Compound 78]

IC50 [1, 7]: 6.3 µM
Compound: CCc1cc2c(N3CCCN(C4=NCC(C)(C)S4)CC3)ncnc2s1 [Compound 76]

IC50 [1, 6]: 80 µM
Compound: COc1ccc(-c2csc(CC(N)=O)n2)cc1Br [Compound 58]

IC50 [1, 6]: 107 µM
Compound: O=C(Cc1nc(-c2ccc(F)cc2)cs1)N1CCOCC1 [Compound 52]

IC50 [1, 7]: 2.4 µM
Compound: CC(C)c1cc2c(N3CCN(c4nnc(C(F)(F)F)s4)CC3)ncnc2s1 [Compound 68]

IC50 [1, 7]: 10 µM
Compound: CCc1cc2c(N3CCN(C(=O)c4ccccc4)CC3)ncnc2s1 [Compound 62]

IC50 [1, 8]: 100 µM
Compound: CC(=O)N1c2ccccc2NC2=C(C(=O)CC(c3ccc(C)cc3)C2)C1c1cccnc1 (stereo not shown) [Compound 84]

IC50 [1, 7]: 30 µM
Compound: CCc1cc2c(N3CCN(Cc4ccc(Cl)cc4)CC3)ncnc2s1 [Compound 60]

IC50 [1, 8]: 72 µM
Compound: COc1ccc(C2CC(=O)C3=C(C2)Nc2ccccc2N(C(C)=O)C3c2cccnc2)cc1 (stereo not shown) [Compound 85]

IC50 [1, 7]: 20 µM
Compound: CCc1cc2c(N3CCN(CC(=O)N4CCOCC4)CC3)ncnc2s1 [Compound 61]

IC50 [1, 6]: 1060 µM
Compound: O=C(Cc1nc(-c2ccc(Cl)cc2)cs1)NCc1ccccc1 [Compound 53]

IC50 [1, 7]: 20 µM
Compound: COc1ccc(CN2CCCN(c3ncnc4sc(C)c(C)c34)CC2)cc1 [Compound 73]

IC50 [1, 7]: 1.1 µM
in vitro activity in FP assay relative to parent Compound 1 ([1]; in words): more potent activity
Compound: CCc1cc2c(N3CCN(c4nnc(C(F)(F)F)s4)CC3)ncnc2s1.Cl [Compound 66]

IC50 [1, 7]: 16 µM
Compound: CCc1cc2c(N3CCN(CC(=O)N4CCN(C)CC4)CC3)ncnc2s1 [Compound 69]

IC50 [1, 7]: 8.7 µM
Compound: Cc1sc2ncnc(NC3CCN(Cc4ccccc4)CC3)c2c1C [Compound 77]

IC50 [1, 6]: 830 µM
Compound: CCCC(=O)Nc1ccc(-c2nc(CC(N)=O)sc2C)cc1 [Compound 59]

IC50 [1, 7]: 27 µM
Compound: CCc1cc2c(NCCN(CC)Cc3ccccc3)ncnc2s1 [Compound 83]

IC50 [1, 7]: 20 µM
Compound: CC1CCc2c(sc3ncnc(NC4CCN(Cc5ccccc5)CC4)c23)C1 (stereo not shown) [Compound 79]

IC50 [1, 7]: 7 µM
Compound: CCc1cc2c(N3CCCN(CC(=O)N4CCCC4)CC3)ncnc2s1 [Compound 74]

IC50 [1, 7]: 32 µM
Compound: CC(C)c1cc2c(N3CCCN(C4=NCC(C)(C)S4)CC3)ncnc2s1 [Compound 75]

D in FP assay ([1]; Table 4, at 0.5 mM): 30%
Compound: Cc1ccc(-c2csc(CC(N)=O)n2)cc1C [Compound 56]

IC50 [1, 7]: 1.3 µM
Compound: CCc1cc2c(NC3CCN(Cc4ccccc4)CC3)ncnc2s1 [Compound 80]

IC50 [1, 7]: 4.4 µM
Compound: CCc1cc2c(NCC3CCN(Cc4ccc(F)cc4)CC3)ncnc2s1 [Compound 82]
